Test results reported in patent US20060160883A1, “Regulation of immune system action in mammals through use of a multi-tiered model of immune system function” (priority 2005, published 2006).

Tested on: osteosarcoma (bone cancer) and chondrosarcoma (cartilage cancer)
Assay: Treatment of one dog (Maggie, 12 year old Border Collie) with bone and cartilage cancer after leg amputation
Format: in vivo
Source text: The mammal involved is Maggie, a 12 year old, neutered female Border Collie. • 1) The IDO-producing diseases or conditions in this case are osteosarcoma (bone cancer) and chondrosarcoma (cartilage cancer). • 2) There are three parts to treatment in this model. There must be a choice or choices from Treatment Part A. There may be choice(s) from Treatment Part B and/or Part C. • A) The goal of Treatment Part A is to “turn off” IDO and/or its actions. The choice I used in this case was an antioxidant to compete with IDO for O2. • The antioxidant I used was ascorbic acid in the form of Ester-C, a licensed trademark of Zila Neutraceuticals, Inc. It is manufactured under U.S. Pat. Nos. 4,822,816 and 5,070,085. It was purchased at Sam's Club and the bottle contained 500 500 mg caplets with Rose Hips.
The doseage was bowel tolerance level which in this case was 3-4½ grams per day. • B) The goal of Treatment Part B is to build up the immune system. […] This is not, however, seen as a cure for either type of cancer she had. • Another choice was pain medication. • Yet another choice was antibiotics after the surgery to prevent infection while she healed. • My other treatment of choice was Vitamin D3. I purchased KAL brand D-400. (This stands for 400 IUs of Vitamin D3). I purchased them at several health food stores. There were 100 softgels per bottle and each softgel contained 400 IUs of D3 as well as 600 IUs of Vitamin A. They were manufactured by Nutraceutical Corp. for Makers of KAL, Inc. • Maggie's dosage most of the time was 6 softgels (2400 IUs) per day. For one week in November, she had no Vitamin D3, then after that, 10 (4000 IUs) per day for a short time, then 8 (3200 IUs) per day. • The total cost per month for Ester-C and D-400 was approximately $25.
Also, on July 12, she started taking Vitamin D3. (She started with 2 per day, and by July 14th, was taking 6 per day. She took 3 in the morning and 3 at night from then until October 30.) The hope was that the D3 could buy some time.
August 25, in addition to Vitamin D3, Maggie started taking Vitamin C (Ester-C caplets). That evening, she was given 3 caplets (one and one half grams).
The morning of August 26, she was given 4 caplets (2 grams). The goal was to find her bowel tolerance level.
Treatment resumed, this time with 9 softgels of Vitamin D3 per day and 9 caplets of Ester-C per day. That afternoon, […] developed a fever that lasted until afternoon of the next day.
A week later, she was taking 7 Ester-C and 10 D3 per day, but the D3 was dropped to 8 per day by November 21.

| SMILES | overall effect of the treatment on the cancer (autopsy findings) (Ester-C plus Vitamin D3 after amputation, only microscopic cells and clusters in liver, bone tumor area being replaced) | alkaline phosphatase level (blood test) (November 3, Ester-C at bowel tolerance since August 25 in addition to Vitamin D3 (D3 stopped October 30), before treatment 3175) | alkaline phosphatase level (blood test) (November 5, Vet Emergency Hospital (different lab), Ester-C plus Vitamin D3 treatment) | lung and lower abdominal x-rays, sign of cancer (November 5, Ester-C plus Vitamin D3 treatment) | autopsy, cancer in lungs (after death December 18, Ester-C plus Vitamin D3 treatment) | alertness, behaviour (evening of August 26, one day after start of Ester-C (3 then 4 caplets) in addition to Vitamin D3) | alkaline phosphatase level (blood test) (August 15, Vitamin D3 6 softgels (2400 IUs) per day since July 12 after amputation, level before treatment 3175, normal range 5-131) | lung X-rays (August 15, on Vitamin D3 after amputation) | signs of Vitamin D3 overdose (blood test) (November 3, after 6 softgels (2400 IUs) per day July 14 to October 30) | calcium deposits in organs on x-ray (a symptom of D3 overdose) (November 5) |
| --- | --- | --- | --- | --- | --- | --- | --- | --- | --- | --- |
| O=C1O[C@H]([C@@H](O)CO)C(O)=C1O [Vitamin C, ascorbic acid] | seemed to be working on the cancer | 2230 | 1669 | no sign of cancer | no cancer in her lungs | alert and awake |  |  |  |  |
| C=C1CC[C@H](O)C/C1=C/C=C1\CCC[C@]2(C)[C@@H]([C@H](C)CCCC(C)C)CC[C@@H]12 [Vitamin D3] |  |  |  |  |  |  | 3113 | no lung cancer tumors | no signs of Vitamin D3 overdose | no calcium deposits in any organs |
